Laboratory results reported in US4181731A, “Novel therapeutic application of 4-carbamoyl-5-hydroxyimidazole” (Sumitomo Chemical Company, Limited, priority 1978, dated 1980).

Columns and labels:
mice (ICR, male) = experiment: Subacute toxicities against mice (oral, 21 days); type: in vivo; details: 100 mg/kg/day orally
Description: Subacute toxicities of Compound A against mice (ICR, male, body weight approximately 25 g) were as follows. The said compound was orally administered for 21 days. The dosage level was 100 mg/kg/day.

adjuvant arthritis = experiment: Inhibitory effects on the adjuvant arthritis of rats (antirheumatic activity); type: in vivo; details: for Foot Volume: control 2.34 ml; for Inhibition Rate: foot volume
Description: The antirheumatic activities on adjuvant arthritis were estimated according to the methods described in "Arzneimittel-Forschung (Drug Res.)", Vol. 22, p. 1959 (1972).
*Successive administration was performed immediately after inoculation of […]

Masuji nephritis = experiment: Antinephritic effects on Masuji nephritis; type: in vivo; details: for Urinary Protein: control 238.9; for Inhibition Ratio: urinary protein
Source text: The antinephritic activities were estimated according to the methods described in "Arerugii", Vol. 24, p. 472 (1975) (in Japanese).
*Successive oral administration began for 2 days before the injection of […]

[1] = Acute toxicity against mice; details: mouse, in vivo, mice (ICR, male, 22-25 g)
Source text: Acute toxicity of Compound A against mice (ICR, male, body weight 22-25 g) was as follows.

SMILES: NC(=O)c1nc[nH]c1O [Compound A, 4-carbamoyl-5-hydroxyimidazole]
- Autopsy (mice (ICR, male)): No adverse effect
- Body weight change (mice (ICR, male)): Normal
- Clinical signs (mice (ICR, male)): No adverse effect except slight involution of the spleen
- Food consumption (mice (ICR, male)): Normal
- Haematology, overall finding (mice (ICR, male)): No adverse effect
- Relative organ weight, Heart (average) (mice (ICR, male)): 0.49%
- Relative organ weight, Kidney (average) (mice (ICR, male)): 1.50%
- Relative organ weight, Liver (average) (mice (ICR, male)): 6.24%
- Relative organ weight, Lung (average) (mice (ICR, male)): 0.81%
- Relative organ weight, Spleen (average) (mice (ICR, male)): 0.30%
- Relative organ weight, Testis (average) (mice (ICR, male)): 0.38%
- Relative organ weight, Thymus (average) (mice (ICR, male)): 0.20%
- Urinalysis, overall finding (mice (ICR, male)): No adverse effect
- GOT (average) (mice (ICR, male); Haematology): 54.4 K.U.
- Hematocrit value (average) (mice (ICR, male); Haematology): 35%
- Hemoglobin (average) (mice (ICR, male); Haematology): 15.1 g/dL
- Red blood cells (average) (mice (ICR, male); Haematology): 6.0 × 10^6 /mm^3
- White blood cells (average) (mice (ICR, male); Haematology): 6.5 × 10^4 /mm^3
- Glucose (urinalysis) (mice (ICR, male); Urinalysis): Negative
- Occult blood (urinalysis) (mice (ICR, male); Urinalysis): Negative
- Protein (urinalysis) (mice (ICR, male); Urinalysis): 30 to 100 mg/dL
- pH (urinalysis) (mice (ICR, male); Urinalysis): 6.0-6.5
- Foot Volume (adjuvant arthritis; 5 mg/kg/day × 21, p.o.): 1.28 mL
- Foot Volume (adjuvant arthritis; 10 mg/kg/day × 21, p.o.): 0.88 mL
- Foot Volume (adjuvant arthritis; 25 mg/kg/day × 21, p.o.): 0.44 mL
- Inhibition Rate (adjuvant arthritis; 5 mg/kg/day × 21, p.o.): 45.3%
- Inhibition Rate (adjuvant arthritis; 10 mg/kg/day × 21, p.o.): 62.3%
- Inhibition Rate (adjuvant arthritis; 25 mg/kg/day × 21, p.o.): 81.2%
- Urinary Protein (Masuji nephritis; 5 mg/kg/day × 16, p.o.): 147.6 mg/24 hrs.
- Urinary Protein (Masuji nephritis; 10 mg/kg/day × 16, p.o.): 68.4 mg/24 hrs.
- Urinary Protein (Masuji nephritis; 25 mg/kg/day × 16, p.o.): 28.4 mg/24 hrs.
- Inhibition Ratio (Masuji nephritis; 5 mg/kg/day × 16, p.o.): 38.2%
- Inhibition Ratio (Masuji nephritis; 10 mg/kg/day × 16, p.o.): 71.4%
- Inhibition Ratio (Masuji nephritis; 25 mg/kg/day × 16, p.o.): 88.1%
- LD50 ([1]; ip): > 500 mg/kg
- LD50 ([1]; iv): > 130 mg/kg
- LD50 ([1]; po): > 2000 mg/kg
